Reference: patent EP4733299A1, “SULFUR-CONTAINING FUSED RING COMPOUND, PHARMACEUTICAL COMPOSITION CONTAINING SAME, AND PREPARATION METHOD THEREFOR AND USE THEREOF” (Shenzhen Braegen Pharmaceutical Co., Ltd., priority 2023, dated 2024)

Tests used:
a-Syn aggregates = molecular target: T1, a-Syn aggregates (Homo sapiens, UniProt P37840, A53T); test: Binding specificity on brain slices of rotenone-treated SNCA transgenic mice; conditions: brain slices, rotenone-treated SNCA Tg mice; Fig. 2
T1 construct: tissue The Jackson Laboratory 017682; host or cells: brain sections of rotenone-treated transgenic mice
Method: To further explore whether the positive compounds selectively bind to Lewy bodies, brain slices from mice were used to test the binding specificity assays.
Staining with a-Synuclein protein coding gene (SNCA) transgenic mice (the Jackson Laboratory; stock numbers: 017682) were treated with rotenone (Oral gavage of rotenone under the following protocol: Mice were treated with 0.1 mL/25 g of vehicle containing 1% methylcellulose (Sigma, Catalog No.: M0512) and 1.25% chloroform (Sigma, Catalog No.: 2432) or a solution containing 0.625 mg/mL of rotenone (ULTRA Scientific, Catalog No.: PST-890) with 1% methylcellulose and 1.25% chloroform. We prepared rotenone solution by dissolving rotenone in chloroform and then diluting into 1% methylcellulose solution while mixing vigorously. Rotenone or vehicle control was orally administered with a 1.2 x 60 mm gavage (Unimed, Switzerland) once a day for 5 days/week, consecutively for 3 months.), which contains abundant LB-like inclusions. Furthermore, brain slices from NFT abundant Tau P301S mice and Aβ-enriched 5 x FAD mice were also used separately.
The brain slices were fixed and incubated for 12 h at 4 °C with primary antibodies followed by incubation with Alexa Fluor 568-, Alexa Fluor 488-, or Alexa Fluor 647-conjugated secondary antibodies (Invitrogen) for 3 h at room temperature. Then stained with ThS (Sigma, Catalog No.: T1892) or candidate compounds at room temperature, 4',6-diamidino-2-phenylindole (DAPI, 1 µg/ml) (Sigma-Aldrich) was used for the nuclear staining. The slides were imaged with Olympus FluoView FV1000 confocal laser scanning microscope using Olympus FluoView software to acquire data.

[1] = molecular target: T2, α-Syn-p129 or α-Syn aggregates (Homo sapiens, UniProt P37840, A53T); test: In vivo validation: tail vein injection, then staining of brain sections; design: species or system rotenone-treated α-Syn A53T mice; conditions: 2 mg/kg tail vein injection; 0.5 hours after administration
T2 construct: tissue The Jackson Laboratory 017682; host or cells: brain sections of rotenone-treated transgenic mice
Method: (§1) In vivo validation of the compounds was performed using 8-month-old wild-type mice (Jiangsu Aniphe Biolaboratory Inc), 12-month-old 5xFAD mice (The Jackson Laboratory; Catalog No.: 034840), 6-month-old Tau P301S mice (The Jackson Laboratory; Catalog No.: 008169), and rotenone-treated α-Syn A53T mice (The Jackson Laboratory; Catalog No.: 017682). All mice were stratified by sex and randomly divided into groups, and the compounds were administered via tail vein injection at a dose of 2 mg/kg. Tissues were harvested and mouse brain sections were prepared 0.5 hours after administration, followed by staining with anti-Aβ (Biolegend; Catalog No.: SIG-39300) or AT8 (Thermo Fisher; Catalog No.: MN1020) together with the compounds, respectively.

p-α-Syn S129 = molecular target: T3, p-α-Syn S129 (Homo sapiens, UniProt P37840); test: Ex vivo staining of human DLB patient brain sections; format: binding; conditions: DLB patient brain slides; Fig. 3
T3 construct: from tissue; host or cells: human DLB patient brain sections
Method: The ex vivo screening was extended into human DLB, and AD patient samples. Neurodegenerative diseases of DLB belong to synucleino-pathies with well-defined Lewy bodies. Therefore, the positive compounds should show robust signals with LBs and LNs.
For immunohistochemical staining, deparaffinized and antigen-retrieved 20 µm-thick human brain sections were treated with 0.3% H2O2 at room temperature for 10 min. Subsequently, the sections were washed in PBS with 0.3% Triton X-100 3 times and then blocked with 1% BSA for 30 min, followed by overnight incubation with anti-Aβ/AT8/α-Syn pS129 antibody at 4 °C. The signal was developed using a Histostain-SP kit (Invitrogen, Catalog No.: 95-9943). After washing, the sections were covered with a glass cover using mounting solution.

Aβ = molecular target: T4, Aβ (Homo sapiens, UniProt P05067); test: In vivo validation: tail vein injection, then staining of brain sections; design: species or system 5xFAD mice; conditions: 2 mg/kg tail vein injection; 0.5 hours after administration
T4 construct: tissue The Jackson Laboratory 034840; host or cells: brain of 5xFAD mice, compound injected in vivo, sections made afterwards
Method: as §1

Aβ aggregates [2] = molecular target: T5, Aβ aggregates (Homo sapiens, UniProt P05067); test: Fluorescence binding assay with protein aggregates (fluorescence spectrophotometer); conditions: Aβ aggregates; compound 5 µM, 37°C, 5 min
T5 construct: Aβ (1-42) peptide (rPeptide; catalog No.: A-1163-1); purchased rPeptide A-1163-1
Method: (§2) First, the compound was a final concentration of 5 µM by dissolved in 50 mM Tris-buffer (pH 7.0) with 0.0025% (v/v) DMSO. Then, Aβ, α-Synuclein, and Tau aggregates were added, with their final concentrations being 0.02, 0.04, 0.08, 0.16, 0.32, 0.64, and 1.28 µM, respectively. Subsequently, the fluorescence measurements were detected using a fluorescence spectrophotometer (Horiba, Fluorolog3).
(§3) Aβ PFF: Aβ (1-42) peptide (rPeptide; catalog No.: A-1163-1) was resolved in 9 volumes of ice-cold distilled water and vortexed occasionally. After 30 min, one volume of 10X fibril-forming buffer (0.2 M NaPi, 1.5 M NaCl, 0.2% NaN3, pH 7.5) was added. The final concentration of peptide was 1 mg/ml. The solution was incubated at 37 °C for one week.
(§4) Tau aggregates: The cDNA sequence of Tau was inserted into a plasmid carrying a GST tag, which was then transfected into BL21 bacteria for protein expression. Bacterial pellets were resuspended in high-salt buffer (0.75 M NaCl, 50 mM Tris, pH 7.4, 1 mM EDTA), sonicated, and centrifuged at 70,000 x g for 30 min. The supernatants were applied onto a Glutathione sepharose beads column (GE Healthcare) and purified by GST tag. Thrombin was used to remove the GST tag. The protein was dialyzed with FPLC buffer (50 mM NaCl, 50 mM Tris- HCl pH 7.4). The protein was filtered through a 0.22 µm syringe filter. The concentration of Tau was adjusted to 3 mg/mL, 12.5 µM heparin was added, and the mixture was shaken at 37 °C and 300 rpm for 7 days to prepare Tau aggregates. • Incubation Concentrations: 0.02, 0.04, 0.08, 0.16, 0.32, 0.64, and 1.28 µM; • Incubation Temperature: 37°C; • Incubation Duration: 5 min; • Detection Wavelengths: [formula]
(§5) Statistical analysis was performed using GraphPad Prism® version 8.2.1.

Aβ aggregates [3] = test: as above; conditions: Kd for Aβ to Kd for α-Synuclein
Method: as §2, §3, §4, §5

AT8 = molecular target: T6, AT8 (Homo sapiens, UniProt P10636, P618S); test: In vivo validation: tail vein injection, then staining of brain sections; design: species or system Tau P301S mice; conditions: 2 mg/kg tail vein injection; 0.5 hours after administration
T6 construct: tissue The Jackson Laboratory 008169; host or cells: brain of Tau P301S mice, compound injected in vivo, sections made afterwards
Method: as §1

T4 sequence (P05067 672-713 limits assumed): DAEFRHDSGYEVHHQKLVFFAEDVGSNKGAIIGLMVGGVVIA
T5 sequence (P05067 672-713): as the sequence (P05067 672-713 limits assumed) above
T6 sequence (P10636 1-412 isoform P10636-7 P272S): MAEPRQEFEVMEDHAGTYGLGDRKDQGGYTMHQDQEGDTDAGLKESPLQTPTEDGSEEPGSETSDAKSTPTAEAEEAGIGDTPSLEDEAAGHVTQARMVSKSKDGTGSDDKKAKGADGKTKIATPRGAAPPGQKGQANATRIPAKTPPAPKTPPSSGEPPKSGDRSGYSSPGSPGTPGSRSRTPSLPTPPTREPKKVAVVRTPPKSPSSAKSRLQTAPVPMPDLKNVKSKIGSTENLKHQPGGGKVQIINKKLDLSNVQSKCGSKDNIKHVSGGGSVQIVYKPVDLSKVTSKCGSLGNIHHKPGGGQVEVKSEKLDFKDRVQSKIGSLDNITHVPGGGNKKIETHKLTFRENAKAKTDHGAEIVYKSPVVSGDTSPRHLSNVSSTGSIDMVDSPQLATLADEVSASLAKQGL

| SMILES | capture of a-Syn aggregates (a-Syn aggregates) | co-localization with α-Syn-p129 or α-Syn aggregates [1] | costaining with p-α-Syn S129 (p-α-Syn S129) | specific binding to Aβ (Aβ) | Kd (Aβ aggregates [2]) | Ratio / α-Synuclein (Aβ aggregates [3]) | specific binding to AT8 (AT8) |
| --- | --- | --- | --- | --- | --- | --- | --- |
| Cc1cc2nc(/C=C/c3ccc(O)c(N)c3)sc2cc1N(C)CCOCCF [Compound C, (E)-2-amino-4-(2-(6-((2-(2-fluoroethoxy)ethyl)(methyl)amino)-5-methylbenzo[d]thiazol-2-yl)vinyl)phenol] | sensitively captured a-Syn aggregates | co-localized | costained | no specific binding | 1510 nM | 4.80 | no specific binding |
| COc1c(/C=C/c2nc3cc(C)c(N(C)CCOCCF)cc3s2)ccc(O)c1Br [Compound E, (E)-2-bromo-4-(2-(6-((2-(2-fluoroethoxy)ethyl)(methyl)amino)-5-methylbenzo[d]thiazol-2-yl)vinyl)-3-methoxyphenol] | sensitively captured a-Syn aggregates | co-localized | costained | no specific binding | 87.2 nM | 5.59 | no specific binding |
| CCN(CCOCCF)c1cc2sc(/C=C/c3ccc(O)c(Br)c3)nc2cc1C [Compound R, (E)-2-bromo-4-(2-(6-(ethyl(2-(2-fluoroethoxy)ethyl)amino)-5-methylbenzo[d]thiazol-2-yl)vinyl)phenol] | sensitively captured a-Syn aggregates | co-localized | costained | no specific binding | 1270 nM | 15.74 | no specific binding |
